Measured values reported in patent US20250188169A1, “METHOD FOR TREATING CLONAL HEM[…] DISORDERS” (THE CHILDREN'S MEDICAL CENTER CORPORATION, priority 2022, published 2025).
“Also recorded” adds a separate entry of the source.

How the values were obtained:
[1] = tested on: asxl1-mutant clones; assay: asxl1-mutant clonal dynamics in peripheral blood of mosaic asxl1-mutant zebrafish (VAF by sequencing); format: in vivo
Method: (§1) Zebrafish were generated with mosaic mutations in asxl1 using the TWISTR method (Avagyan et a1 Science 2021, PMID 34735227). Briefly, they were injected with guide-RNAs targeting asxl1 gene with Cas9 mRNA into 1-cell embryos of zebrafish, and grown to adulthood. At 3 months retroortibital bleeding was performed on the adult zebrafish and measure the size of the mutant clones in the peripheral blood by sequencing the genomic DNA at the targeting locus of asxl1. Zebrafish with at least 1 mutant allele of 5% of greater allele size were chosen for the cohorts, randomly assigned to be treated with either DMSO or NR4A1 inhibitor (DIM-C). The dose of DIM-C was determined in a previously conducted pilot experiment. Zebrafish with mosaic mutations in asxl1 are treated with either DMSO or an NR4A1 inhibitor (DIM-C) and analyzed over a three-month period. Peripheral blood was collected every month to determine the size of the mutant clones over time. […] RO=retro-orbital bleed, RO1=first RO, pre-treatment, RO2 through RO4=monthly RO bleeds following treatment.
Clonal hematopoiesis. Zebrafish were generated with mosaic mutations in asxl1 using the TWISTR method (Avagyan et a1 Science 2021, PMID 34735227). Briefly, they were injected with guide-RNAs targeting asxl1 gene with Cas9 mRNA into 1-cell embryos of zebrafish, and grown to adulthood. At 3 months retroortibital bleeding was performed on the adult zebrafish and the size of the mutant clones in the peripheral blood was measured by sequencing the genomic DNA at the targeting locus of asxl1. Zebrafish with at least 1 mutant allele of 5% of greater allele size were chosen for the cohorts, randomly assigned to be treated with either DMSO or NR4A1 inhibitor (DIM-C). Zebrafish with mosaic mutations in asxl1 were treated with either DMSO or an NR4A1 inhibitor (DIM-C) and analyzed over a three-month period. Peripheral blood was collected every month to determine the size of the mutant clones over time.
It was previously shown by early genetic targeting nr4a1 during development prevented clonal growth of mutant cells. Next, the hypothesis that pharmacologic inhibition of nr4a1 would halt or reduce mutant clonal growth over time was tested (FIG. 1). To test this hypothesis, a cohort of asxl1 mutant zebrafish were generated and screened for the presence of asxl1 mutant clone at at least 5% VAF in peripheral blood. The positively screened mutant fish were then treated either with DMSO or minimally toxic dose of DIM-c (Tocris compound) at 9.5 uM concentration overnight, between 14-16 hours long, 5 days of the week for 6 months. Peripheral blood from both groups was collected by retroorbital bleeding every month for measurement of the mutant clones in the blood by next generation sequencing (FIG. 2). N=are the numbers of fish at the initiation of treatment. A more detailed experimental schema with exact dates in order to calculate exact ages of the fish or post treatment timepoints is shown in FIG. 10.

[2] = tested on: zebrafish; assay: Tolerability and survival of treated asxl1-mutant zebrafish; format: in vivo; conditions: over the three-month treatment period
Method: as §1
It was previously shown by early genetic targeting nr4a1 during development prevented clonal growth of mutant cells. […]
FIG. 11 examines the survival curve of the fish in two cohorts. […] Additionally, marrow cellular composition was analyzed at 8 months post treatment by flow cytometry.

[3] = tested on: marrow myelomonocytes, lymphocytes and progenitor/precursors; assay: Marrow cellular composition by flow cytometry; format: in vivo, zebrafish; conditions: 8 months post treatment
Method: FIG. 11 examines the survival curve of the fish in two cohorts. An event was finding the fish dead or moribund after overnight treatment; no fish died during the day or off treatment days or as a consequence of retroorbital bleeding. No statistical difference was found with p values >0.05 by two different tests between the groups. 17 DMSO and 13 DIMC fish were left for final analysis. Additionally, marrow cellular composition was analyzed at 8 months post treatment by flow cytometry.

## Oc1ccc(C(c2c[nH]c3ccccc23)c2c[nH]c3ccccc23)cc1 [DIM-C, 1,1-bis(3′-indolyl)-1-(p-hydroxyphenyl)methane]
[1]; DIM-C treated zebrafish, three-month period, null hypothesis: no change
  change in asxl1 frameshift indel containing clone size compared to 0 (Wilcoxon rank test): no significant change
[1]; DIM-C treatment, three-month period, peripheral blood
  change of asxl1-mutant clones with non-frameshift indels over time: similarly unchanged over time; also recorded: did not change significantly over time
[1]; DIM-C vs DMSO, three-month period, monthly retro-orbital bleeds, peripheral blood
  expansion of asxl1-mutant clones with frameshift indels (VAF over time): less pronounced and plateaus by 3 months; also recorded: less expansion of asxl1-mutant clones
[1]; DIM-C, all zebrafish (n=12), three-month period
  asxl1-mutant clonal expansion, clones with frameshift and non-frameshift indels, all zebrafish: significantly abated asxl1-mutant clonal expansion
[1]; DIMC treatment arm, compared to 0 (no change over time), one sample t and Wilcoxon test
  change in size of the largest clone over treatment: had not changed significantly
[1]; three-month period, clones with VAF of 5% or greater in at least 1 time point
  percent change of clone size (VAF at RO4 compared to VAF at RO1), frameshift-indel clones, compared to DMSO: significantly less expansion
[2]
  physical abnormalities in treated zebrafish: No physical abnormalities were observed
[3]
  marrow cellular composition, difference between treatment groups: no difference between the treatment groups
